Results: article PMC6964649, “Light-controllable dithienylethene-modified cyclic peptides: photoswitching the in vivo toxicity in zebrafish embryos” (Beilstein Journal of Organic Chemistry, 2020)
Starred links: 1 amine or outer side, 2 acyl side, 3 side chain; linkers in the order of their positions; H or OH if unused. Positions of bridges follow the written chain, without caps; N, C: chain ends. Non-standard residues stand in square brackets, D forms with d. Residues, ends and D or L forms follow the SMILES beside them. X2 = Cc1sc(C(=O)[C@@H]2CCCN2[*:2])cc1C1=C(c2cc(C(=O)[*:1])sc2C)CCC1; Leu(3R-OH) = CC(C)[C@@H](O)[C@H](N)C(=O)O; X1 = CCCCN([C@@H](CC(C)C)C(=O)[*:2])[*:1]; Orn = NCCC[C@H](N)C(=O)O

Experiments:
[1] = tested on: D. rerio embryos; test: D. rerio embryotoxicity "photoactivation" assay (ring-closed photoform in darkness, then in situ photoconversion); format: in vivo, Danio rerio; details: for LD50 (opened)^1h / LD50 (opened)^24h: after 24 h with ring-closed form in dark, in situ illumination 10 min, λ = 570 nm, approx. 20 mW/cm^2; for LD50 (opened)^1h: mortality 1 h after illumination, embryos 4 dpf; for LD50 (opened)^1h / LD50 (opened)^24h / LD50 (closed)^24h: value ± STD; for LD50 (opened)^24h: mortality 24 h after illumination, embryos 5 dpf at readout; for LD50(closed)^24h/LD50(open)^24h ratio: phototherapeutic safety window, ring-closed 24 h LD50 (dark) divided by ring-open 24 h LD50 (direct application); for LD50 (closed)^24h: ring-closed photoform applied to embryos at 3 dpf, 24 h in the dark, sealed vials, E3 medium, 0.2% DMSO
Method: (§1) To establish the assay for screening the photoswitchable peptides, we first studied the toxicity of our prototype 2 by varying the assay conditions. The parent peptide GS 1 was used as a control. […] We measured the doses causing the death of 50% embryos (LD50). We tested two different assay variations: in one version, the LD50(open) was determined after direct application of 1 or of the ring-open form of 2. In the other variant, the photoswitchable peptide was applied in the ring-closed photoform in the darkness, its LD50(closed) was recorded, and then in situ illumination (“photoactivation”) was applied to switch into the ring-open photoform and obtain the respective LD50(opened) values (see Figure 2 for the study design and the killing curves).
(§2) Figure 2 Two versions of the D. rerio embryotoxicity assay for DAE-modified peptides: timelines, peptide photostates, ages of larvae, and definitions of the measured characteristics. (A) Direct application of the non-photoswitchable parent GS 1 or of the ring-open photoform of our prototype 2, and the corresponding killing curves for 1 (C, top, black) and 2 (C, bottom, red). (B) “Photoactivation” assay: initial application of the ring-closed photoform, incubation in darkness, followed by in situ photoconversion into the ring-open(ed) photoform, with the corresponding killing curves for 1 (D, top) and 2 (D, bottom, green for ring-closed, red for ring-open isomers). The latter panel illustrates the “phototherapeutic safety window” (green arrow) as the difference in toxicity between the ring-closed and the ring-open isomers upon photoactivation.
(§3) Each time, 12–15 or 18–20 zebrafish embryos at 3 dpf were treated by applying the corresponding peptide dissolved in dimethyl sulfoxide (final dimethyl sulfoxide concentration was 0.2%). Double-concentrated peptide stock solutions (64–512 µg/mL) were prepared by weighing lyophilized peptides, dissolving in 10% dimethyl sulfoxide and constructing two-fold dilution series with ten–eleven dilution steps. In the photoconversion experiments, in order to prevent spontaneous photoswitching of the ring-closed peptides by vis light, zebrafish embryos and peptides were kept in the dark before the first readout, and the vials were sealed to avoid evaporation of the embryonic medium (E3) at prolonged incubation times. After the first screen, without exchanging any solution, the vials with embryos and ring-closed photoforms were exposed to intense illumination for 10 min (LUMATEC Superlite 410 light source, λ = 570 nm, irradiance approximately 20 mW/cm^2). Mortality was then determined under ambient light conditions at 1 h and 24 h after the illumination procedure.

[2] = observed water solubility and aggregation; format: physicochemical; details: ring-open form; observation in words
Excerpt: We have also analyzed the correlation between the empirical low-pH hydrophobicity of the peptides (as assessed from the retention times in reversed-phase HPLC) and toxicity against zebrafish embryos. Independent on the photoisomeric state and the type of toxicity assay, decreasing polarity of the peptides is accompanied by an increase in toxicity against zebrafish embryos (compare Figure 3A and 3B). Within the different series of peptides (the series are marked with different colors in Figure 3 for clarity) we get almost linear toxicity–hydrophobicity correlations in most cases, and all the outliers are readily explainable.

[3] = tested on: D. rerio embryos; test: D. rerio embryotoxicity assay, direct application of ring-open photoform; format: in vivo, Danio rerio; details: direct application of 1 or ring-open photoform, zebrafish embryos at 3 dpf, final DMSO 0.2%, ambient light, value ± STD; for LD50 (open)^1h: 1 h incubation, 12–15 or 18–20 embryos; for LD50 (open)^3h: 3 h incubation; for LD50 (open)^24h: 24 h incubation
Method: as §1, §2, §3

| Compound | LD50 (opened)^1h [1] [µg/mL] | LD50 (opened)^24h [1] [µg/mL] | LD50(closed)^24h/LD50(open)^24h ratio [1] | LD50 (closed)^24h [1] [µg/mL] | water solubility and aggregation [2] | LD50 (open)^1h [3] [µg/mL] | LD50 (open)^3h [3] [µg/mL] | LD50 (open)^24h [3] [µg/mL] |
| --- | --- | --- | --- | --- | --- | --- | --- | --- |
| CCCCN1C(=O)[C@@H](Cc2ccccc2)NC(=O)[C@H](CC(C)C)NC(=O)[C@H](CCCN)NC(=O)[C@H]([C@@H](C)CC)NC(=O)c2cc(c(C)s2)C2=C(CCC2)c2cc(sc2C)C(=O)[C@@H]2CCCN2C(=O)[C@H](CC(C)C)NC(=O)[C@H](CCCN)NC(=O)[C@H]([C@@H](C)CC)NC(=O)[C@@H]1CC(C)C [Peptide 11] (I[Orn]L[dF][X1]I[Orn]L; linker N-C via X2) | 4.0 ± 0.3 | 3.0 ± 1.0 | 2.8 | 4.4 ± 0.2 | very low water solubility and tendency to aggregate | 3.0 ± 1.8 | 2.4 ± 0.7 | 1.6 ± 0.1 |
| Cc1sc2cc1C1=C(CCC1)c1cc(sc1C)C(=O)[C@@H]1CCCN1C(=O)[C@H](C(C)C)NC(=O)[C@H](CCCN)NC(=O)[C@H]([C@H](O)C(C)C)NC(=O)[C@@H]1CCCN1C(=O)[C@@H](Cc1ccccc1)NC(=O)[C@H](C(C)C)NC(=O)[C@H](CCCN)NC(=O)[C@H]([C@H](O)C(C)C)NC2=O [Peptide 15] ([Leu(3R-OH)][Orn]V[dF]P[Leu(3R-OH)][Orn]V; linker N-C via X2) | 22.9 ± 0.2 | 7.2 ± 0.7 | 7.8 | 56.1 ± 12.2 |  | 36.5 ± 2.1 | 14.1 ± 6.0 | 7.2 ± 3.8 |
| Cc1sc2cc1C1=C(CCC1)c1cc(sc1C)C(=O)[C@@H]1CCCN1C(=O)[C@H](CC(C)C)NC(=O)[C@H](CCCCN)NC(=O)[C@H](C(C)C)NC(=O)[C@H](CCCCN)NC(=O)[C@H](CC(C)C)NC(=O)[C@@H]1CCCN1C(=O)[C@@H](Cc1ccccc1)NC(=O)[C@H](C(C)C)NC(=O)[C@H](CCCCN)NC(=O)[C@H](CC(C)C)NC(=O)[C@H](CCCCN)NC(=O)[C@H](C(C)C)NC2=O [Peptide 16] (VKLKV[dF]PLKVKL; linker N-C via X2) | 5.6 ± 0.5 | 5.2 ± 0.5 | 3.8 | 6.0 ± 0.1 |  | 3.1 ± 1.0 | 3.1 ± 1.0 | 1.6 ± 0.0 |
| Cc1sc2cc1C1=C(CCC1)c1cc(sc1C)C(=O)[C@@H]1CCCN1C(=O)[C@H](C(C)C)NC(=O)[C@H](CCCCN)NC(=O)[C@H](C(C)C)NC(=O)[C@@H](CCCCN)NC(=O)[C@H](CC(C)C)NC(=O)[C@@H]1CCCN1C(=O)[C@@H](Cc1ccccc1)NC(=O)[C@H](C(C)C)NC(=O)[C@H](CCCCN)NC(=O)[C@H](CC(C)C)NC(=O)[C@H](CCCCN)NC(=O)[C@H](C(C)C)NC2=O [Peptide 17] (VKLKV[dF]PL[dK]VKV; linker N-C via X2) | 9.9 ± 0.1 | 9.4 ± 0.7 | 3.1 | 9.9 ± 0.1 |  | 10.5 ± 5.8 | 10.5 ± 5.8 | 3.2 ± 0.2 |
| Cc1sc2cc1C1=C(CCC1)c1cc(sc1C)C(=O)[C@@H]1CCCN1C(=O)[C@H](C(C)C)NC(=O)[C@H](CCCCN)NC(=O)[C@H](C(C)C)NC(=O)[C@H](CC(C)C)NC(=O)[C@H](CCCCN)NC(=O)[C@@H]1CCCN1C(=O)[C@@H](Cc1ccccc1)NC(=O)[C@H](C(C)C)NC(=O)[C@H](CCCCN)NC(=O)[C@H](CC(C)C)NC(=O)[C@H](CCCCN)NC(=O)[C@H](C(C)C)NC2=O [Peptide 18] (VKLKV[dF]PKLVKV; linker N-C via X2) | 12.3 ± 1.5 | 12.3 ± 1.5 | 30.8 | 12.3 ± 1.5 |  | 0.9 ± 0.4 | 0.9 ± 0.4 | 0.4 ± 0.2 |
| DAE-OrnN3-OLfPVOL (bicyclic or more) [Peptide 20, "click"-chemistry connected homodimer of DAE-modified macrocycle (series v)] | 8.4 ± 3.3 | 3.5 ± 0.6 | 7.1 | 10.7 ± 0.1 |  | 3.7 ± 1.9 | 3.7 ± 1.9 | 1.5 ± 0.0 |
